Several values for one entry are separate records, joined by “and”; a condition that tells them apart may be missing. Equal entries are not always repeated. Where two headings read alike, the source gives them in different places.
Assays:
FGFR1 = FGFR1 (Homo sapiens (Human), UniProt P11362); assay: RBC NanoBRET Assay for Target Engagement in HEK293 cells transfected with FGFR1-NanoLuc Fusion vector; format: cell-based; settings: 1 hour, tracer K5 1 μM
Description: Cellular Assay. The RBC NanoBRET Assay for Target Engagement was performed by Reaction Biology Corporation, 1 Great Valley Parkway, Suite 2 Malvern, PA 19355, USA. The assay was conducted in HEK293 cells transiently transfected with FGFR1-NanoLuc Fusion vector. The HEK293 cells (ATCC) were transfected with 1 μg of FGFR1-NanoLuc Fusion vector in 384-well format and the transfected cells were subsequently treated with the test compounds (starting at 10 μM, 10-dose with 3-fold dilution) for 1 hour using CTx-0294885 as the reference standard and K5 (1 μM) was used as the tracer. FGFR1 target engagement was measured and the curve fits were performed only when % NanoBret signal at the highest concentration of compounds was less than 55%.

[1] = Pharmacokinetics assay in male CD-1 mice (plasma, LC-MS/MS, non-compartmental analysis); format: in vivo; settings: for MRT inf: read-out: MRT0-inf; for MRT last: read-out: MRT0-last;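 as to Plasma concentration: plasma concentration of test compound at each sampling time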
Description: Pharmacokinetics Assay. A pharmacokinetics assay of Example 1 was performed by WuXi AppTec Inc., 6 Cedarbrook Drive, Cranbury, NJ 08512 USA. This study was conducted in 6 to 8-week-old male CD-1 mice (Hilltop Laboratories). Animals were group housed during acclimation and throughout the study. The animal room environment was controlled according to facility operation (temperature: 20 to 26° C.; relative humidity: 30 to 70%; lighting: 12 hour light/dark cycle). Temperature, relative humidity, and lighting were monitored by PointView Environmental Monitoring System. Animals were fed certified pellet diet (Certified Rodent Diet #5002, LabDiet). The diet lot number and specifications were recorded in study notebook and archived at WuXi AppTec. Water (reverse osmosis) was provided to the animals ad libitum. The animals were fasted overnight and food was returned 4 hours post-dose.
An appropriate amount of Example compound 1 above (N^1-(3,5-Dimethoxyphenyl)-N^2-isopropyl-N^1-(3-(1-methyl-1H-pyrazol-4-yl)cinnolin-6-yl)ethane-1,2-diamine) was accurately weighed and mixed with an appropriate volume of 20% hydroxypropyl-(3-cyclodextrin; 80% H2O (w/v) to give either a clear solution or uniform suspension (PO only). Blood samples of about 30-40 μL were collected from peripheral veins at pre-defined time points. into pre-chilled micro-tubes containing K2EDTA as anti-coagulant and kept on ice until centrifugation. The blood samples were centrifuged at 4° C., 3000g for 15 min within half an hour of collection. Plasma was collected into 96-well plate(s), quickly frozen on dry ice and stored at −70±10° C. until LC-MS/MS analysis. The LC-MS/MS analytical method is described as follows:
The pharmacokinetics of Example Compound 1 were analyzed using the Phoenix WinNonlin software (version 6.3) based on the non-compartmental analysis model and the results are shown below in FIGS. 1 and 2 and in Tables 1 and 2. M7, M8, M9, etc. refer to particular mouse subjects used in the study.

[2] = IV 1.00 mg/kg, mouse, individual mice M7-M9
[3] = PO 10.0 mg/kg, mouse, individual mice M10-M12
[4] = male, CD-1, mouse, plasma, iv, 1 mg/kg, IV 1.00 mg/kg, individual mice M7-M9
[5] = male, CD-1, mouse, plasma, iv, 1 mg/kg, IV 1.00 mg/kg, mean
[6] = male, CD-1, mouse, plasma, po, 10 mg/kg, PO 10.0 mg/kg, mean

Chain of FGFR1 (P11362 22-822): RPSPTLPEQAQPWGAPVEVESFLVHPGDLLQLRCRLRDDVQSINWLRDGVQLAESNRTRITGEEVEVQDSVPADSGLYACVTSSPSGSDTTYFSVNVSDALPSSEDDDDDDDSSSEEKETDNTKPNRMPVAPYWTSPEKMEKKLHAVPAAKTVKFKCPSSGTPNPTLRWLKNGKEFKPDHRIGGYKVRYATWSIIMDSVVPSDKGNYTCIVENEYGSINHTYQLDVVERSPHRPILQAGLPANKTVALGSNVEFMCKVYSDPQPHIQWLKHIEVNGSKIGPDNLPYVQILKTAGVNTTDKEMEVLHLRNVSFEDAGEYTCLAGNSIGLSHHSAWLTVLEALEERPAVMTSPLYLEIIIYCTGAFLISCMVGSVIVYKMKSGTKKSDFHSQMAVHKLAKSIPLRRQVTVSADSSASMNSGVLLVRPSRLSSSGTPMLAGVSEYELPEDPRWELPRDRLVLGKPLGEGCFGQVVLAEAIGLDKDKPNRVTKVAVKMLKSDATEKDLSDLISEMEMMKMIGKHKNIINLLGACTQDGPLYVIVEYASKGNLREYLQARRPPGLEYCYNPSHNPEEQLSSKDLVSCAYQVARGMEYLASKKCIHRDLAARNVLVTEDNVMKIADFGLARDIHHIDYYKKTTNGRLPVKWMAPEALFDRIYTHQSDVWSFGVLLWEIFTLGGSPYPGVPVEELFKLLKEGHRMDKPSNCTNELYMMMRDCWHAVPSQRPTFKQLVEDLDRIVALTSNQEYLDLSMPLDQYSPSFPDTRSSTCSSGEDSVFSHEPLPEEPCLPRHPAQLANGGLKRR

COc1cc(OC)cc(N(CCNC(C)C)c2ccc3nnc(-c4cnn(C)c4)cc3c2)c1 [Example 1, N^1-(3,5-Dimethoxyphenyl)-N^2-isopropyl-N^1-(3-(1-methyl-1H-pyrazol-4-yl)cinnolin-6-yl)ethane-1,2-diamine]
IC50 (FGFR1): 9.5 nM
Plasma concentration ([1]; IV 1.00 mg/kg, mouse, 299 s, individual mice M7-M9): 294 ng/mL and 444 ng/mL
Plasma concentration ([1]; IV 1.00 mg/kg, mouse, 0.250 h, individual mice M7-M9): 197 ng/mL and 143 ng/mL and 292 ng/mL
Plasma concentration ([1]; IV 1.00 mg/kg, mouse, 0.500 h, individual mice M7-M9): 80.8 ng/mL and 86.8 ng/mL and 206 ng/mL
Plasma concentration ([1]; IV 1.00 mg/kg, mouse, 1.00 h, individual mice M7-M9): 58.0 ng/mL and 29.3 ng/mL and 86.4 ng/mL
Plasma concentration ([1]; IV 1.00 mg/kg, mouse, 2.00 h, individual mice M7-M9): 15.2 ng/mL and 8.83 ng/mL and 17.9 ng/mL
Plasma concentration ([1]; IV 1.00 mg/kg, mouse, 4.00 h, individual mice M7-M9): 3.17 ng/mL and 3.64 ng/mL
Plasma concentration ([1]; IV 1.00 mg/kg, mouse, 8.00 h, individual mice M7-M9): 1.73 ng/mL and 1.42 ng/mL
Plasma concentration ([1]; IV 1.00 mg/kg, mouse, 24.0 h, individual mice M7-M9): 2.21 ng/mL and BQL
AUC0-inf [1, 2]: 197 ng·h/mL and 305 ng·h/mL
AUC0-last [1, 2]: 188 ng·h/mL and 303 ng·h/mL
AUCExtra [1, 2]: 1.15% and 4.42% and 0.637%
AUMCExtra [1, 2]: 10.6% and 26.9% and 6.89%
C0 [1, 2]: 421 ng/mL and 547 ng/mL
Cl [1, 2]: 84.8 mL/min/kg and 54.7 mL/min/kg
MRT0-inf [1, 2]: 2.80 h and 4.58 h and 0.866 h
MRT0-last [1, 2]: 2.53 h and 3.50 h and 0.812 h
T1/2 [1, 2]: 1.34 h and 2.72 h and 0.948 h
Tlast [1, 2]: 24.0 h (2×) and 8.00 h
Vdss [1, 2]: 12.2 L/kg and 23.3 L/kg and 2.84 L/kg
AUCExtra ([1]; IV 1.00 mg/kg, mouse, mean): 2.07%
AUMCExtra ([1]; IV 1.00 mg/kg, mouse, mean): 14.8%
Tlast ([1]; IV 1.00 mg/kg, mouse, mean): 18.7 h
Plasma concentration ([1]; PO 10.0 mg/kg, mouse, 0.167 h, individual mice M10-M12): 43.6 ng/mL and 46.8 ng/mL and 147 ng/mL
Plasma concentration ([1]; PO 10.0 mg/kg, mouse, 0.500 h, individual mice M10-M12): 71.0 ng/mL and 102 ng/mL and 269 ng/mL
Plasma concentration ([1]; PO 10.0 mg/kg, mouse, 1.00 h, individual mice M10-M12): 47.6 ng/mL and 51.9 ng/mL and 170 ng/mL
Plasma concentration ([1]; PO 10.0 mg/kg, mouse, 2.00 h, individual mice M10-M12): 14.1 ng/mL and 29.7 ng/mL and 89.5 ng/mL
Plasma concentration ([1]; PO 10.0 mg/kg, mouse, 4.00 h, individual mice M10-M12): 12.5 ng/mL and 9.57 ng/mL and 22.8 ng/mL
Plasma concentration ([1]; PO 10.0 mg/kg, mouse, 6.00 h, individual mice M10-M12): 20.7 ng/mL and 7.02 ng/mL and 4.44 ng/mL
Plasma concentration ([1]; PO 10.0 mg/kg, mouse, 8.00 h, individual mice M10-M12): 13.2 ng/mL and 4.84 ng/mL and 1.77 ng/mL
Plasma concentration ([1]; PO 10.0 mg/kg, mouse, 24.0 h, individual mice M10-M12): 7.49 ng/mL and 1.56 ng/mL and BQL
AUC0-inf [1, 3]: 488 ng·h/mL and 235 ng·h/mL and 443 ng·h/mL
AUC0-last [1, 3]: 333 ng·h/mL and 216 ng·h/mL and 441 ng·h/mL
AUCExtra [1, 3]: 31.7% and 8.42% and 0.593%
AUMCExtra [1, 3]: 69.7% and 41.4% and 3.41%
Cmax [1, 3]: 71.0 ng/mL and 102 ng/mL and 269 ng/mL
MRT0-inf [1, 3]: 20.3 h and 7.47 h and 1.65 h
MRT0-last [1, 3]: 9.01 h and 4.78 h and 1.60 h
T1/2 [1, 3]: 14.3 h and 8.81 h and 1.03 h
Tlast [1, 3]: 24.0 h (2×) and 8.00 h
AUCExtra ([1]; PO 10.0 mg/kg, mouse, mean): 13.6%
AUMCExtra ([1]; PO 10.0 mg/kg, mouse, mean): 38.2%
Tlast ([1]; PO 10.0 mg/kg, mouse, mean): 18.7 h
concentration at 0.083 h ([1]; male, CD-1, mouse, plasma, iv, 1 mg/kg, IV 1.00 mg/kg, 299 s, individual mice M7-M9): 341 ng/mL
concentration at 0.083 h ([1]; male, CD-1, mouse, plasma, iv, 1 mg/kg, IV 1.00 mg/kg, 299 s, mean): 360 ng/mL
concentration at 0.25 h ([1]; male, CD-1, mouse, plasma, iv, 1 mg/kg, IV 1.00 mg/kg, 0.250 h, mean): 211 ng/mL
concentration at 0.5 h ([1]; male, CD-1, mouse, plasma, iv, 1 mg/kg, IV 1.00 mg/kg, 0.500 h, mean): 125 ng/mL
concentration at 1 h ([1]; male, CD-1, mouse, plasma, iv, 1 mg/kg, IV 1.00 mg/kg, 1.00 h, mean): 57.9 ng/mL
concentration at 2 h ([1]; male, CD-1, mouse, plasma, iv, 1 mg/kg, IV 1.00 mg/kg, 2.00 h, mean): 14 ng/mL
concentration at 4 h ([1]; male, CD-1, mouse, plasma, iv, 1 mg/kg, IV 1.00 mg/kg, 4.00 h, individual mice M7-M9): 3.72 ng/mL
concentration at 4 h ([1]; male, CD-1, mouse, plasma, iv, 1 mg/kg, IV 1.00 mg/kg, 4.00 h, mean): 3.51 ng/mL
concentration at 8 h ([1]; male, CD-1, mouse, plasma, iv, 1 mg/kg, IV 1.00 mg/kg, 8.00 h, individual mice M7-M9): 1.65 ng/mL
concentration at 8 h ([1]; male, CD-1, mouse, plasma, iv, 1 mg/kg, IV 1.00 mg/kg, 8.00 h, mean): 1.6 ng/mL
concentration at 24 h ([1]; male, CD-1, mouse, plasma, iv, 1 mg/kg, IV 1.00 mg/kg, 24.0 h, individual mice M7-M9): 1.36 ng/mL
concentration at 24 h ([1]; male, CD-1, mouse, plasma, iv, 1 mg/kg, IV 1.00 mg/kg, 24.0 h, mean): 1.79 ng/mL
AUC(0-t) [1, 4]: 226 ng·h/mL
clearance [1, 4]: 73 mL/min/kg
AUC0-inf ([1]; male, CD-1, mouse, plasma, iv, 1 mg/kg, IV 1.00 mg/kg, individual mice M7-M9, read-out: AUC0-inf): 228 ng·h/mL
C0 ([1]; male, CD-1, mouse, plasma, iv, 1 mg/kg, IV 1.00 mg/kg, individual mice M7-M9, read-out: C0): 448 ng/mL
AUC(0-t) [1, 5]: 239 ng·h/mL
clearance [1, 5]: 70.8 mL/min/kg
half-life [1, 5]: 1.67 h
AUC0-inf ([1]; male, CD-1, mouse, plasma, iv, 1 mg/kg, IV 1.00 mg/kg, mean, read-out: AUC0-inf): 243 ng·h/mL
C0 ([1]; male, CD-1, mouse, plasma, iv, 1 mg/kg, IV 1.00 mg/kg, mean, read-out: C0): 472 ng/mL
MRT inf [1, 5]: 2.75 h
MRT last [1, 5]: 2.28 h
Vd ([1]; male, CD-1, mouse, plasma, iv, 1 mg/kg, IV 1.00 mg/kg, mean, read-out: Vdss): 12.8 L/kg
concentration at 0.167 h ([1]; male, CD-1, mouse, plasma, po, 10 mg/kg, PO 10.0 mg/kg, 0.167 h, mean): 79.1 ng/mL
concentration at 0.5 h ([1]; male, CD-1, mouse, plasma, po, 10 mg/kg, PO 10.0 mg/kg, 0.500 h, mean): 147 ng/mL
concentration at 1 h ([1]; male, CD-1, mouse, plasma, po, 10 mg/kg, PO 10.0 mg/kg, 1.00 h, mean): 89.8 ng/mL
concentration at 2 h ([1]; male, CD-1, mouse, plasma, po, 10 mg/kg, PO 10.0 mg/kg, 2.00 h, mean): 44.4 ng/mL
concentration at 4 h ([1]; male, CD-1, mouse, plasma, po, 10 mg/kg, PO 10.0 mg/kg, 4.00 h, mean): 15 ng/mL
concentration at 6 h ([1]; male, CD-1, mouse, plasma, po, 10 mg/kg, PO 10.0 mg/kg, 6.00 h, mean): 10.7 ng/mL
concentration at 8 h ([1]; male, CD-1, mouse, plasma, po, 10 mg/kg, PO 10.0 mg/kg, 8.00 h, mean): 6.6 ng/mL
concentration at 24 h ([1]; male, CD-1, mouse, plasma, po, 10 mg/kg, PO 10.0 mg/kg, 24.0 h, mean): 4.53 ng/mL
AUC(0-t) [1, 6]: 330 ng·h/mL
half-life [1, 6]: 8.05 h
AUC0-inf ([1]; male, CD-1, mouse, plasma, po, 10 mg/kg, PO 10.0 mg/kg, mean, read-out: AUC0-inf): 389 ng·h/mL
Cmax ([1]; male, CD-1, mouse, plasma, po, 10 mg/kg, PO 10.0 mg/kg, mean, read-out: Cmax): 147 ng/mL
MRT inf [1, 6]: 9.81 h
MRT last [1, 6]: 5.13 h
bioavailability ([1]; male, CD-1, plasma, PO 10.0 mg/kg vs IV 1.00 mg/kg, mouse, calculated from AUC): 13.8%
Tmax ([1]; male, CD-1, plasma, PO 10.0 mg/kg, mouse, individual mice M10-M12): 0.5 h
